Species: Rattus norvegicus
Assay: Antiplatelet activity in Sprague-Dawley rat plasma assessed as shear induced platelet aggregation at 10 uM
Assay type: functional
Compound CC(=O)Oc1ccccc1C(=O)O [ASPIRIN] has an Activity of 44.7%.
C=C(COC(=O)/C=C/c1ccc(O)c(O)c1)C(O)CO[C@@H]1O[C@H](CO)[C@@H](O)[C@H](O)[C@H]1O (stereo partly drawn) [PUBESCENOSIDE A] gave an Activity of 36.55%.
Work on C=C(CO)C(CO[C@@H]1O[C@H](CO)[C@@H](O)[C@H](O)[C@H]1O)OC(=O)/C=C/c1ccc(O)c(O)c1 (stereo partly drawn) [PUBESCENOSIDE B] yielded an Activity of 27.3%.

Source: ChEMBL document CHEMBL1158706, “Hemiterpene glucosides with anti-platelet aggregation activities from Ilex pubescens” (2005)
